Results: ChEMBL document CHEMBL1201862, “PubChem BioAssay data set” (2004)
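Compound exposure: 48 hours, 5 concentrations, 96-well plates. GI50 = concentration required for 50% inhibition of growth.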 Activity calls are given as the source filed them. Rule as the data show it: active = GI50 up to about 1.1 µM and inactive = higher.

Experiments:
Test in all cases: NCI-60 cell line screen, 48 h
IGROV-1 = system: IGROV-1
HOP-62 = system: HOP-62
A549 = system: A549
KM12 = system: KM12
SK-MEL-2 = system: SK-MEL-2
COLO 205 = system: COLO 205
DMS-114 = system: DMS-114
HCT-15 = system: HCT-15
HCT-116 = system: HCT-116
MOLT-4 = system: MOLT-4
CCRF-CEM = system: CCRF-CEM
SR = system: SR
HCC 2998 = system: HCC 2998
SK-MEL-5 = system: SK-MEL-5
Malme-3M = system: Malme-3M
786-0 = system: 786-0
XF498 = system: XF498
OVCAR-4 = system: OVCAR-4
M14 = system: M14
DMS-273 = system: DMS-273
SF-295 = system: SF-295
RXF 393 = system: RXF 393
ACHN = system: ACHN
HL-60 = system: HL-60
EKVX = system: EKVX
NCI-H226 = system: NCI-H226
SF-539 = system: SF-539
UACC-257 = system: UACC-257
U-251 = system: U-251
NCI-H522 = system: NCI-H522
OVCAR-5 = system: OVCAR-5
RPMI-8226 = system: RPMI-8226
A498 = system: A498
SK-MEL-28 = system: SK-MEL-28
M19-MEL = system: M19-MEL
OVCAR-3 = system: OVCAR-3
SNB-78 = system: SNB-78
HOP-18 = system: HOP-18
HT-29 = system: HT-29
SNB-19 = system: SNB-19
LXFL 529 = system: LXFL 529
NCI-H23 = system: NCI-H23
KM-20L2 = system: KM-20L2
NCI-H460 = system: NCI-H460
SW-620 = system: SW-620
SF-268 = system: SF-268
SNB-75 = system: SNB-75
TK-10 = system: TK-10
HOP-92 = system: HOP-92
DLD-1 = system: DLD-1
CAKI-1 = system: CAKI-1
LOX IMVI = system: LOX IMVI
K562 = system: K562
SN12C = system: SN12C
UACC-62 = system: UACC-62
UO-31 = system: UO-31
OVCAR-8 = system: OVCAR-8
SK-OV-3 = system: SK-OV-3
Hs-578T = system: Hs-578T
MDA-MB-435 = system: MDA-MB-435
DU-145 = system: DU-145
T47D = system: T47D
NCI/ADR-RES = system: NCI/ADR-RES
MDA-N = system: MDA-N
MDA-MB-231 = system: MDA-MB-231
BT-549 = system: BT-549
PC-3 = system: PC-3

CC1=C(c2cc(C(=O)Nc3ccc(Cl)c(Cl)c3)nc(N)n2)Sc2ccccc2N1
GI50 (IGROV-1): > 100 µM (inactive)
GI50 (HOP-62): > 100 µM (inactive)
GI50 (A549): > 100 µM (inactive)
GI50 (KM12): > 100 µM (inactive)
GI50 (SK-MEL-2): > 100 µM (inactive)
GI50 (COLO 205): > 100 µM (inactive)
GI50 (DMS-114): > 100 µM (inactive)
GI50 (HCT-15): > 100 µM
GI50 (HCT-116): > 100 µM (inactive)
GI50 (MOLT-4): > 100 µM (inactive)
GI50 (CCRF-CEM): > 100 µM (inactive)
GI50 (SR): > 100 µM (inactive)
GI50 (HCC 2998): > 100 µM (inactive)
GI50 (SK-MEL-5): > 100 µM (inactive)
GI50 (Malme-3M): > 100 µM (inactive)
GI50 (786-0): > 100 µM (inactive)
GI50 (XF498): > 100 µM (inactive)
GI50 (OVCAR-4): > 100 µM (inactive)
GI50 (M14): > 100 µM (inactive)
GI50 (DMS-273): > 100 µM (inactive)
GI50 (SF-295): > 100 µM (inactive)
GI50 (RXF 393): 89.7 µM (inactive)
GI50 (ACHN): > 100 µM (inactive)
GI50 (HL-60): > 100 µM (inactive)
GI50 (EKVX): 98.6 µM (inactive)
GI50 (NCI-H226): > 100 µM (inactive)
GI50 (SF-539): > 100 µM (inactive)
GI50 (UACC-257): > 100 µM (inactive)
GI50 (U-251): > 100 µM (inactive)
GI50 (NCI-H522): > 100 µM (inactive)
GI50 (OVCAR-5): > 100 µM (inactive)
GI50 (RPMI-8226): > 100 µM (inactive)
GI50 (A498): > 100 µM (inactive)
GI50 (SK-MEL-28): > 100 µM (inactive)
GI50 (M19-MEL): > 100 µM (inactive)
GI50 (OVCAR-3): > 100 µM (inactive)
GI50 (SNB-78): > 100 µM (inactive)
GI50 (HOP-18): > 100 µM (inactive)
GI50 (HT-29): > 100 µM (inactive)
GI50 (SNB-19): > 100 µM (inactive)
GI50 (LXFL 529): > 100 µM (inactive)
GI50 (NCI-H23): > 100 µM (inactive)
GI50 (KM-20L2): > 100 µM (inactive)
GI50 (NCI-H460): > 100 µM (inactive)
GI50 (SW-620): > 100 µM (inactive)
GI50 (SF-268): > 100 µM (inactive)
GI50 (SNB-75): > 100 µM (inactive)
GI50 (TK-10): > 100 µM (inactive)
GI50 (HOP-92): > 100 µM (inactive)
GI50 (DLD-1): > 100 µM (inactive)
GI50 (CAKI-1): > 100 µM (inactive)
GI50 (LOX IMVI): > 100 µM (inactive)
GI50 (K562): 62.5 µM (inactive)
GI50 (SN12C): > 100 µM (inactive)
GI50 (UACC-62): > 100 µM (inactive)
GI50 (UO-31): > 100 µM (inactive)
GI50 (OVCAR-8): > 100 µM (inactive)
GI50 (SK-OV-3): > 100 µM (inactive)

CC(=O)OC(CCC1(C)OC1COc1ccc(CCNC(=O)C=C(C)C)cc1)C(C)(C)OC(C)=O (stereo not drawn)
GI50 (IGROV-1): 29.1 µM (inactive)
GI50 (Hs-578T): 59.3 µM (inactive)
GI50 (HOP-62): 20 µM (inactive)
GI50 (A549): 29.3 µM (inactive)
GI50 (KM12): 17.8 µM (inactive)
GI50 (MDA-MB-435): 16.2 µM (inactive)
GI50 (SK-MEL-2): > 51.9 µM (inactive)
GI50 (COLO 205): 28.2 µM (inactive)
GI50 (DU-145): > 100 µM (inactive)
GI50 (T47D): 16.6 µM (inactive)
GI50 (DMS-114): 0.19 µM (active)
GI50 (HCT-15): 24.9 µM
GI50 (HCT-116): 0.611 µM (active)
GI50 (MOLT-4): 8.93 µM (inactive)
GI50 (CCRF-CEM): > 40.6 µM (inactive)
GI50 (SR): 24.9 µM (inactive)
GI50 (HCC 2998): > 100 µM (inactive)
GI50 (SK-MEL-5): 0.502 µM (active)
GI50 (Malme-3M): 23.5 µM (inactive)
GI50 (786-0): > 100 µM (inactive)
GI50 (XF498): 23.2 µM (inactive)
GI50 (OVCAR-4): 23.7 µM (inactive)
GI50 (M14): 16.3 µM (inactive)
GI50 (DMS-273): 22.5 µM (inactive)
GI50 (SF-295): 0.743 µM (active)
GI50 (RXF 393): 13.5 µM (inactive)
GI50 (ACHN): 3.61 µM (inactive)
GI50 (HL-60): > 32.1 µM (inactive)
GI50 (EKVX): 16.9 µM (inactive)
GI50 (NCI/ADR-RES): 10.6 µM (inactive)
GI50 (MDA-N): 13.3 µM (inactive)
GI50 (NCI-H226): > 57 µM (inactive)
GI50 (SF-539): > 100 µM (inactive)
GI50 (UACC-257): 0.449 µM (active)
GI50 (U-251): > 100 µM (inactive)
GI50 (NCI-H522): 19.5 µM (inactive)
GI50 (MDA-MB-231): > 100 µM (inactive)
GI50 (OVCAR-5): > 100 µM (inactive)
GI50 (RPMI-8226): 13.1 µM (inactive)
GI50 (A498): > 100 µM (inactive)
GI50 (SK-MEL-28): 28.2 µM (inactive)
GI50 (M19-MEL): 19.7 µM (inactive)
GI50 (OVCAR-3): 16.8 µM (inactive)
GI50 (SNB-78): 24.5 µM (inactive)
GI50 (HOP-18): > 100 µM (inactive)
GI50 (HT-29): 46 µM (inactive)
GI50 (SNB-19): > 100 µM (inactive)
GI50 (LXFL 529): 12.7 µM (inactive)
GI50 (NCI-H23): 0.647 µM (active)
GI50 (KM-20L2): 62.1 µM (inactive)
GI50 (NCI-H460): 25.6 µM (inactive)
GI50 (SW-620): > 100 µM (inactive)
GI50 (SF-268): > 61.2 µM (inactive)
GI50 (BT-549): 0.377 µM (active)
GI50 (SNB-75): 44.4 µM (inactive)
GI50 (TK-10): > 100 µM (inactive)
GI50 (PC-3): 29.9 µM (inactive)
GI50 (HOP-92): > 100 µM (inactive)
GI50 (CAKI-1): > 100 µM (inactive)
GI50 (LOX IMVI): 5.85 µM (inactive)
GI50 (SN12C): > 100 µM (inactive)
GI50 (UACC-62): 18.4 µM (inactive)
GI50 (UO-31): 48.9 µM (inactive)
GI50 (OVCAR-8): 22.9 µM (inactive)
GI50 (SK-OV-3): > 100 µM (inactive)
